These results are taken from US20100317699A1, “USE OF HEDGEHOG AGONISTS IN THE TREATMENT OF MUSCULOSKELETAL-RELATED DISORDERS” (NOVARTIS AG, priority 2008, published 2010).

Assay [1] concerns WT cardiotoxin-injured mice. Put plainly: Cardiotoxin-induced muscle injury and regeneration in WT mice, staining and FACS analysis. Format: in vivo, mouse. As for the experimental part:
(§1) FIG. 3 is a graphic depiction of the design of in vivo experiments, further detailed herein. 6 to 8-week old wildtype (WT), DMD^MDX, or WT cardiotoxin-injured mice (Ctx-inj) received two consecutive bilateral IM injections of either vehicle (10% DMSO/PBS), or Shh-Ag (500 μM) into tibialis anterior (TA) or gastrocnemius (GA) muscles, followed by an IP injection of BrdU. Mice were sacrificed and muscles were then collected 3 or 7 days following ctx-injury for immunostaining (TA) or FACS analysis (GA); n=4 for all groups.
(§2) Mice. All mouse protocols were approved by the Animal Care and Use Committee of Novartis Institutes for BioMedical Research. Wild-type (C57BL/6J) and C57BL/10 DMD^MDX mice were obtained from Jackson Labs. All analyses were performed on male mice approximately 6-8 weeks of age.
Cardiotoxin-induced regeneration. Muscle regeneration was induced by injecting 40 μl (TA) or 100 μl (GA) of cardiotoxin (10 μM Naja atra; Sigma) into the respective tibialis anterior or gastrocnemius muscles of WT C57BL/6J mice.
(§3) Shh-Ag treatment. 20 μl (TA) or 50 μl (GA) of vehicle (10% DMSO/PBS) or 500 μM Shh-Ag was injected into the respective tibialis anterior or gastrocnemius muscles once per day for two consecutive days.
BrdU treatment. For treatment of isolated SCs, a 1:100 dilution of 5-bromodeoxyuridine (BrdU) labeling reagent (10 mg/mL; Invitrogen) was added to the culture media 24 hours following vehicle or Shh-Ag treatment. Cells were then incubated an additional 5 hours, fixed, probed for BrdU, mounted with Dapi containing medium (Vector Labs), and then imaged as described in Materials in Methods. Three random images from four replicate experiments were analyzed for total cell (Dapi) and BrdU+ cell number. For in vivo delivery, 100 μl of BrdU was intraperitoneally (IP) injected following the second vehicle or Shh-Ag intramuscular injection.
FACS analysis. The following antibodies were used in this study: APC-conjugated anti-CD45 (BD), PE-conjugated anti-Syndecan 4 (BD), and FITC-conjugated anti-BrdU (BioVision). Muscles from treated mice were dissected and dissociated as described. To sort satellite cells for further experimentation, […] anti-syndecan 4 was utilized to positively select cells following ARIA (BD) mediated cell sorting. […]
(§4) Immunostaining. […] Images were obtained using an ScanScope XT scanner and analyzed using Aperio ImageScope 6.25 software (Aperio Technologies). […]
To quantify the induction of SC proliferation, ctx-injured and Shh-Ag treated muscle samples (GA) were collected and processed for FACS analysis. A single-cell muscle suspension was gated based on CD45− and Syndecan4+ expression, commonly used identifiers of muscle SCs, and the resultant population was then analyzed for intracellular BrdU localization (see, e.g., FIG. 4). […]

The subject of assay [2] is Cyclin D1. Put plainly: Cyclin D1 protein levels, Western blot densitometry. The note with it: rSHH 1 μg/mL; densitometric scores relative to vehicle=100. In kind it is cell-based. As for the experimental part:
(§5) Protein expression. For details of protein extraction and analysis, please see Supplementary Methods online. Antibodies used for Western are rabbit polyclonal antibodies against Gli1, total Akt, phosphorylated Akt-Ser473 (Cell Signaling) and Cyclin D1 (Abeam).
(§6) Protein Expression. Cells were collected in lysis buffer (20 mM Tris, pH 7.5, 150 mM NaCl, 1 mM EDTA, 1 mM EGTA, 1% Nonidet NP-40, 1 mM β-glycerol phosphate, 1 mM Na3VO4, 1 μg/ml leupeptin, and 1 mM PMSF) and measured for protein concentration with a BCA protein assay kit (Pierce). Electrophoretic separation was performed utilizing 20-60 μg of protein on 4-12% mini-gels (Invitrogen). Proteins were transferred to a PVDF membrane, blocked in 5% blotto [5% powdered milk in TBST (Tris-buffered saline, 1% Tween 20)] for 1 hr followed by an overnight incubation at 4° C. with primary antibody. After overnight incubation, membranes were washed for 30 min in TBST and then probed with anti-rabbit antibody for 45 min at room temperature. After another 30 min of washing in TBST, the blots were developed with ECL. Once the appropriate image was captured, membranes were stained with Coomassie blue to verify equal loading in all lanes. Densitometric measurements were carried out using AlphaEase software (Alpha Innotech).
(In general: Immunoblotting shows a protein as a band on a membrane.)

The next assay relates to DMD^MDX mice. Put plainly: Intramuscular injection into DMD MDX mouse skeletal muscle, BrdU/Pax7 staining. In kind it is in vivo. The following applies: 500 μM IM once per day for two days. As for the experimental part:
as §1, §2, §3
(§7) BrdU treatment. […] Three random images from four replicate experiments were analyzed for total cell (Dapi) and BrdU+ cell number. […]
as §4

For assay [3], the system named is Cyclin D1. Put plainly: Cyclin D1 mRNA expression in isolated SCs. Format: cell-based. As for the experimental part: (§8) RNA and qRT-PCR. For analysis of gene expression, cells were treated with vehicle (DMSO) or 10 nM Shh-Ag for 24 hours. Total RNA was isolated with RNEasy Miniprep Kit (Qiagen), DNAse treated (RQ1, Promega) and reverse transcribed (iScript, Biorad) according to manufacturers instructions. Quantitative PCR was performed using Taqman Gene Expression Assays (Applied Biosystems) in an ABI7500 Fast system as per manufacturer's instructions. Gene expression changes were calculated using the comparative ΔΔCT method.
(§9) Myoblast and Satellite cell isolation. Primary mouse myoblasts were isolated from mouse hind-limb muscles as described herein. Muscle satellite cells were isolated from hind-limb muscles of 4-6 week old C57BL/6J mice. Muscles were dissected and finely chopped with razor blades in DMEM. Chopped muscles were placed in a 50 mL Falcon tube with 30 mL of dissociation solution (0.1% Collagenase D, 0.25% Trypsin in DMEM) and agitated at 37° for 20 minutes. Following dissociation, 500 μl of fetal calf serum was added to block Trypsin activity and samples were passed through a 37 μM filter. Solutions were diluted two-fold in DMEM, passed through a […] filter, centrifuged at 1000 RPM for 15 minutes, and the subsequent pellet was re-suspended in 1% FCS/PBS. Syndecan 4 positive satellite cells were then isolated by fluorescent activated cell sorting (FACS) utilizing an ARIA-UV cell sorter (BD).

Another assay relates to wild-type (WT) mice. The experiment in a line: Intramuscular injection into wild-type mouse skeletal muscle, BrdU/Pax7 staining. In kind it is in vivo. The note with it: 500 μM IM once per day for two days. As for the experimental part: as §1, §2, §3, §7, §4
The test system of a further assay is isolated satellite cells. The experiment in a line: Isolated satellite cell proliferation, total cell number and BrdU incorporation. Format: cell-based, mouse. The note with it: 48 hr treatment, versus vehicle. As for the experimental part: (§10) Cells. TM3 and C2C12 cells were obtained from ATCC, propagated according to manufacturer's instructions, and maintained at subconfluence. Both primary myoblasts and isolated satellite cells were grown in Ham's F10 media supplemented with 20% Fetal calf serum and 1% Penicillin/Streptomycin without βFGF. All cells were plated on pre-coated collagen dishes (MatTek) or on plastic culture plates treated with rat tail collagen type I (BD).
as §9, with “Syndecan 4 positive satellite cells were then isolated by fluorescent activated cell sorting (FACS) utilizing an ARIA-UV cell sorter (BD).” left out
as §7
A general note: Dividing cells build labelled thymidine or BrdU into new DNA.

Assay [4] concerns Gli1. The experiment in a line: Gli1 protein levels, Western blot densitometry. Format: cell-based. The note with it: rSHH 1 μg/mL; densitometric scores relative to vehicle=100. As for the experimental part: as §5, §6
Assay [5] deals with Gli1. Put plainly: Gli1 mRNA levels in myotubes. Format: cell-based. The note with it: 10 μM, 24 hours.
Assay [6] deals with Cyclin D1. Put plainly: Cyclin D1 mRNA expression in myoblasts. In kind it is cell-based. As for the experimental part: as §8
The test system of a further assay is primary myoblasts. The experiment in a line: Primary myoblast proliferation, PI staining and FACS analysis. Format: cell-based, mouse. As for the experimental part:
as §10
Myoblast isolation. Two to three week-old male C57/BL/6J pups were used for the experiments. The mice were euthanized using CO2. Then the skin and fascia from the ankle joint up toward the hip were peeled to expose underlying muscles. The muscles (hamstring, quadriceps, tibialis anterior, extensor digitorum longus, gastrocnemius and soleus) from both legs were carefully removed, trying to any tendons and non-muscle tissues. The dissected muscles were placed in a sterile […] containing PBS and washed to remove hair and other debris. The muscles were then transferred to a sterile 35 mm^2 dish and 1.5 ml of a collagenase/dispase solution was added to digest the tissues. The tissues were mulched into a reasonably smooth pulp using sterile disposable followed by incubating at 37° C. for 12 min. They were then triturated using 5 ml plastic pipettes to homogenize the mixture. The incubation and triturating step was repeated once more. […]
(In general: A flow cytometer gives signals particle by particle.)

Several values for one entry are separate records, joined by “and”; a condition that tells them apart may be missing. Equal entries are not always repeated. Entries after “also recorded” stand apart in the source; their conditions may differ.

Turning to `CNC1CCC(N(Cc2cccc(-c3ccncc3)c2)C(=O)c2sc3c(F)ccc(F)c3c2Cl)CC1` (stereo not drawn) [Shh-Ag], the “BrdU+, centrally-aligned nuclei in longitudinal muscle sections” value in assay [1] (7 days following ctx-injury) is reported as “increase in BrdU+, centrally-aligned nuclei”. Moreover, in [1] (ctx-injured GA muscle, FACS, vehicle 4.82±0.33), the “percent of proliferating (BrdU+) SCs” value is 10.67±1.87% and 10.6%. Besides, in [1] (ctx-injured WT muscle, compared to vehicle control), the “percentage of Pax7 expressing SCs that are Pax7+/BrdU+ double positive” value was “larger percentage”. Moreover, in assay [1] (single cardiotoxin injury, WT mice, 500 μM IM), the “number of BrdU+ cells at an early stage of regeneration” value is reported as “significantly increase”. In addition, in the assay on Cyclin D1 [2], the “Cyclin D1 protein levels” value is on record as “elevated protein expression; also recorded: increase”. Besides, the “mononuclear cell infiltration (BrdU+ staining)” value in the assay with DMD^MDX mice is given as “seemed to promote even greater mononuclear cell infiltration”. Moreover, the “number of Pax7−/BrdU+ cells” value with DMD^MDX mice is given as “greatly increased”. Also, the “increase in Cyclin D1 mRNA expression” value with Cyclin D1 [3] and in the assay on Cyclin D1 [6] was “more than 50%” in each case. Further, the “Pax7/BrdU fluorescent co-staining of muscle sections” value with wild-type (WT) mice was “Pax7+/BrdU+ double positive cells were easily seen”. In the assay on wild-type (WT) mice (vehicle sections negative), the “BrdU staining of muscle sections” value is “displayed BrdU+ precursor cells”. Further, the “increase in the percentage of SCs incorporating BrdU” value with isolated satellite cells is recorded as “two fold increase”. The Gli1 protein levels result with Gli1 [4] is “induction; also recorded: increase”. Further, the “Gli1 mRNA levels, fold increase” value in the assay on Gli1 [5] is given as “over 20 fold”.
Turning to “IGF-1: Insulin-like growth factor I, a known skeletal muscle mitogen signaling through PI3K/Akt”, the “myoblast proliferation on co-treatment of Shh-Ag with IGF-1” value in the assay with primary myoblasts was “did not significantly increase”.
